The text below walks through data of patent publication US8846933B2, “N-link hydroxamic acid derivatives useful as antibacterial agents” (Pfizer Inc., priority 2009, dated 2014).

For assay [1], the system named is Escherichia coli EC-1: VOGEL, mouse virulent. The experiment in a line: MIC determination (CLSI), strain EC-1. In kind it is cell-based. The conditions noted are these: strain EC-1; unit assumed. In short, it runs like this:
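The mouse-virulent VOGEL isolate of E. coli, EC-1, served as test organism. Minimum inhibitory concentration was measured by CLSI dilution methodology (M7-A7; M100-S18 standards).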

Assay [2] relates to Pseudomonas aeruginosa UI-18: Wild-type (PA-7). The experiment in a line: MIC determination (CLSI), strain PA-7. Format: cell-based. The following applies: strain PA-7; unit assumed. The procedure, abridged: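 MIC determined by broth dilution per CLSI M7-A7 guidelines with M100-S18 interpretive standards. Test organism: wild-type Pseudomonas aeruginosa UI-18, designated PA-7.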

The structures appear in SMILES notation. Some results are limits rather than exact numbers.

`CCOc1ccc(-c2ccn(CC[C@](C)(C(=O)NO)S(C)(=O)=O)c(=O)c2)c(F)c1` [Example 361, (2R)-4-[4-(4-ethoxy-2-fluorophenyl)-2-oxopyridin-1(2H)-yl]-N-hydroxy-2-methyl-2-(methylsulfonyl)butanamide] showed an EC-1 (MIC) in assay [1] of 0.5 µg/mL. Also, the PA-7 (MIC) in assay [2] was 2 µg/mL.
For `CC(C)(C#N)c1ccc(-c2ccn(CC[C@](C)(C(=O)NO)S(C)(=O)=O)c(=O)c2)cc1` [Example 362, (2R)-4-{4-[4-(1-cyano-1-methylethyl)phenyl]-2-oxopyridin-1(2H)-yl}-N-hydroxy-2-methyl-2-(methylsulfonyl)butanamide] the same measures were 16 µg/mL and 4 µg/mL.
Regarding `Cn1ccnc1-c1ccc(-c2ccn(CC[C@](C)(C(=O)NO)S(C)(=O)=O)c(=O)c2)cc1` [Example 363, (2R)-N-hydroxy-2-methyl-4-{4-[4-(1-methyl-1H-imidazol-2-yl)phenyl]-2-oxopyridin-1(2H)-yl}-2-(methylsulfonyl)butanamide], the EC-1 (MIC) in assay [1] was 32 µg/mL. For the same molecule, the PA-7 (MIC) in assay [2] stood at 64 µg/mL.
For `C[C@@](CCn1ccc(-c2ccc(-n3ccnn3)cc2)cc1=O)(C(=O)NO)S(C)(=O)=O` [Example 364, (2R)-N-hydroxy-2-methyl-2-(methylsulfonyl)-4-{2-oxo-4-[4-(1H-1,2,3-triazol-1-yl)phenyl]pyridin-1(2H)-yl}butanamide] the same measures were 16 µg/mL and 16 µg/mL.
`C[C@@](CCn1ccc(-c2ccc(OCCC[C@@H](O)CO)cc2)cc1=O)(C(=O)NO)S(C)(=O)=O` [Example 365, (2R)-4-[4-(4-{[(4R)-4,5-dihydroxypentyl]oxy}phenyl)-2-oxopyridin-1(2H)-yl]-N-hydroxy-2-methyl-2-(methylsulfonyl)butanamide] yielded an EC-1 (MIC) in assay [1] of 4 µg/mL. In assay [2], the PA-7 (MIC) came out at 4 µg/mL.
`C[C@@](CCn1ccc(-c2ccc(OCCC(O)CO)cc2)cc1=O)(C(=O)NO)S(C)(=O)=O` (stereo partly drawn) [Example 366, (2R)-4-{4-[4-(3,4-dihydroxybutoxy)phenyl]-2-oxopyridin-1(2H)-yl}-N-hydroxy-2-methyl-2-(methylsulfonyl)butanamide] had an EC-1 (MIC) in assay [1] of 16 µg/mL. Further, the PA-7 (MIC) in assay [2] worked out at 16 µg/mL.
Turning to `C[C@@](CCn1ccc(-c2ccc(-c3ncc[nH]3)cc2)cc1=O)(C(=O)NO)S(C)(=O)=O` [Example 367, (2R)-N-hydroxy-4-{4-[4-(1H-imidazol-2-yl)phenyl]-2-oxopyridin-1(2H)-yl}-2-methyl-2-(methylsulfonyl)butanamide], in assay [1], the EC-1 (MIC) turned out to be 8 µg/mL. For the same molecule, in assay [2], the PA-7 (MIC) was above 64 µg/mL.
The molecule `Cc1nccn1-c1ccc(-c2ccn(CC[C@](C)(C(=O)NO)S(C)(=O)=O)c(=O)c2)cc1` [Example 368, (2R)-N-hydroxy-2-methyl-4-{4-[4-(2-methyl-1H-imidazol-1-yl)phenyl]-2-oxopyridin-1(2H)-yl}-2-(methylsulfonyl)butanamide] yielded an EC-1 (MIC) in assay [1] above 64 µg/mL. In assay [2], the PA-7 (MIC) amounted to 16 µg/mL.
In the case of `Cc1cc(-c2ccc(-c3ccn(CC[C@](C)(C(=O)NO)S(C)(=O)=O)c(=O)c3)cc2)[nH]n1` [Example 369], the EC-1 (MIC) in assay [1] was found to be 2 µg/mL. In assay [2], this molecule registered a PA-7 (MIC) of 4 µg/mL.
Molecule `Cc1cc(-c2ccc(-c3ccn(CC[C@](C)(C(=O)NO)S(C)(=O)=O)c(=O)c3)cc2)no1` [Example 370, (2R)-N-hydroxy-2-methyl-4-{4-[4-(5-methylisoxazol-3-yl)phenyl]-2-oxopyridin-1(2H)-yl}-2-(methylsulfonyl)butanamide] came in with an EC-1 (MIC) in assay [1] of 0.125 µg/mL. Besides, the PA-7 (MIC) in assay [2] came out at 0.5 µg/mL.
As to `C[C@@](CCn1ccc(-c2ccc(-n3cncn3)cc2)cc1=O)(C(=O)NO)S(C)(=O)=O` [Example 371, (2R)-N-hydroxy-2-methyl-2-(methylsulfonyl)-4-{2-oxo-4-[4-(1H-1,2,4-triazol-1-yl)phenyl]pyridin-1(2H)-yl}butanamide], the EC-1 (MIC) in assay [1] turned out to be 32 µg/mL. This molecule also displayed a PA-7 (MIC) in assay [2] of 8 µg/mL.
In turn, `C[C@@](CCn1ccc(-c2ccc(-n3nccn3)cc2F)cc1=O)(C(=O)NO)S(C)(=O)=O` [Example 372] showed an EC-1 (MIC) in assay [1] of 0.06 µg/mL. For the same molecule, the PA-7 (MIC) in assay [2] came out at 2 µg/mL.
`Cc1nn(-c2ccc(-c3ccn(CC[C@](C)(C(=O)NO)S(C)(=O)=O)c(=O)c3)cc2)nc1C` [Example 373, (2R)-4-{4-[4-(4,5-dimethyl-2H-1,2,3-triazol-2-yl)phenyl]-2-oxopyridin-1(2H)-yl}-N-hydroxy-2-methyl-2-(methylsulfonyl)butanamide]: the EC-1 (MIC) in assay [1] turned out to be 0.125 µg/mL. This molecule had a PA-7 (MIC) in assay [2] of 1 µg/mL.
With `C[C@@](CCn1ccc(-c2ccc(-c3ccccn3)cc2)cc1=O)(C(=O)NO)S(C)(=O)=O` [Example 374, (2R)-N-hydroxy-2-methyl-2-(methylsulfonyl)-4-[2-oxo-4-(4-pyridin-2-ylphenyl)pyridin-1(2H)-yl]butanamide], the EC-1 (MIC) in assay [1] came out at 0.25 µg/mL. The same molecule registered a PA-7 (MIC) in assay [2] of 1 µg/mL.
For the molecule `Cc1ccnc(-c2ccc(-c3ccn(CC[C@](C)(C(=O)NO)S(C)(=O)=O)c(=O)c3)cc2)n1` [Example 375, (2R)-N-hydroxy-2-methyl-4-{4-[4-(4-methylpyrimidin-2-yl)phenyl]-2-oxopyridin-1(2H)-yl}-2-(methylsulfonyl)butanamide], in assay [1], the EC-1 (MIC) worked out at 0.5 µg/mL. In addition, in assay [2], the PA-7 (MIC) was found to be 4 µg/mL.
Take `Cn1nnc(-c2ccc(-c3ccn(CC[C@](C)(C(=O)NO)S(C)(=O)=O)c(=O)c3)cc2)n1` [Example 376]: in assay [1], the EC-1 (MIC) was determined as 0.5 µg/mL. Moreover, the PA-7 (MIC) in assay [2] was found to be 2 µg/mL.
The matching figures for `Cc1cn(-c2ccc(-c3ccn(CC[C@](C)(C(=O)NO)S(C)(=O)=O)c(=O)c3)cc2)nn1` [Example 377, (2R)-N-hydroxy-2-methyl-2-(methylsulfonyl)-4-{4-[4-(4-methyl-1H-1,2,3-triazol-1-yl)phenyl]-2-oxopyridin-1(2H)-yl}butanamide]: 8 µg/mL and 8 µg/mL.
The matching figures for `Cc1nnnn1-c1ccc(-c2ccn(CC[C@](C)(C(=O)NO)S(C)(=O)=O)c(=O)c2)cc1` [Example 378, (2R)-N-hydroxy-2-methyl-2-(methylsulfonyl)-4-{4-[4-(5-methyl-1H-tetrazol-1-yl)phenyl]-2-oxopyridin-1(2H)-yl}butanamide]: 32 µg/mL and 64 µg/mL.
In turn, `Cc1nnn(-c2ccc(-c3ccn(CC[C@](C)(C(=O)NO)S(C)(=O)=O)c(=O)c3)cc2)n1` [Example 379, (2R)-N-hydroxy-2-methyl-2-(methylsulfonyl)-4-{4-[4-(5-methyl-2H-tetrazol-2-yl)phenyl]-2-oxopyridin-1(2H)-yl}butanamide] came in with an EC-1 (MIC) in assay [1] of 0.5 µg/mL. In addition, the PA-7 (MIC) in assay [2] worked out at 2 µg/mL.
The matching figures for `C[C@@](CCn1ccc(-c2ccc(-c3cnsc3)cc2)cc1=O)(C(=O)NO)S(C)(=O)=O` [Example 380, (2R)-N-hydroxy-4-[4-(4-isothiazol-4-ylphenyl)-2-oxopyridin-1(2H)-yl]-2-methyl-2-(methylsulfonyl)butanamide]: 0.5 µg/mL and 1 µg/mL.
For `C[C@@](CCn1ccc(-c2ccc3cc(N4CCC(O)CC4)ccc3c2)cc1=O)(C(=O)NO)S(C)(=O)=O` [Example 381, (2R)-N-hydroxy-4-{4-[6-(4-hydroxypiperidin-1-yl)-2-naphthyl]-2-oxopyridin-1(2H)-yl}-2-methyl-2-(methylsulfonyl)butanamide] the same measures were 1 µg/mL and 16 µg/mL.
The matching figures for `Cc1nnc(C)n1-c1ccc(-c2ccn(CC[C@](C)(C(=O)NO)S(C)(=O)=O)c(=O)c2)cc1` [Example 382, (2R)-4-{4-[4-(3,5-dimethyl-4H-1,2,4-triazol-4-yl)phenyl]-2-oxopyridin-1(2H)-yl}-N-hydroxy-2-methyl-2-(methylsulfonyl)butanamide]: above 64 µg/mL and above 64 µg/mL.
In assay [1], `Cc1nncn1-c1ccc(-c2ccn(CC[C@](C)(C(=O)NO)S(C)(=O)=O)c(=O)c2)cc1` [Example 383, (2R)-N-hydroxy-2-methyl-2-(methylsulfonyl)-4-{4-[4-(3-methyl-4H-1,2,4-triazol-4-yl)phenyl]-2-oxopyridin-1(2H)-yl}butanamide] registered an EC-1 (MIC) above 64 µg/mL. The PA-7 (MIC) in assay [2] is above 64 µg/mL.
In turn, `Cc1nc(C)n(-c2ccc(-c3ccn(CC[C@](C)(C(=O)NO)S(C)(=O)=O)c(=O)c3)cc2)n1` [Example 384, (2R)-4-{4-[4-(3,5-dimethyl-1H-1,2,4-triazol-1-yl)phenyl]-2-oxopyridin-1(2H)-yl}-N-hydroxy-2-methyl-2-(methylsulfonyl)butanamide] returned an EC-1 (MIC) in assay [1] of 8 µg/mL. For the same molecule, the PA-7 (MIC) in assay [2] was 16 µg/mL.
Regarding `CCOc1ccc2cc(-c3ccn(CC[C@](C)(C(=O)NO)S(C)(=O)=O)c(=O)c3)ccc2n1` [Example 385, (2R)-4-[4-(2-ethoxyquinolin-6-yl)-2-oxopyridin-1(2H)-yl]-N-hydroxy-2-methyl-2-(methylsulfonyl)butanamide], in assay [1], the EC-1 (MIC) was 0.06 µg/mL. This molecule displayed a PA-7 (MIC) in assay [2] of 0.5 µg/mL.
As to `C[C@@](CCn1ccc(-c2ccc(Cl)cc2Cl)cc1=O)(C(=O)NO)S(C)(=O)=O` [Example 386], the EC-1 (MIC) in assay [1] worked out at 2 µg/mL. This molecule gave a PA-7 (MIC) in assay [2] of 2 µg/mL.
In turn, `COc1cnc(-c2ccc(-c3ccn(CC[C@](C)(C(=O)NO)S(C)(=O)=O)c(=O)c3)cc2)nc1` [Example 387, (2R)-N-hydroxy-4-{4-[4-(5-methoxypyrimidin-2-yl)phenyl]-2-oxopyridin-1(2H)-yl}-2-methyl-2-(methylsulfonyl)butanamide] had an EC-1 (MIC) in assay [1] of 0.06 µg/mL. In assay [2], this molecule showed a PA-7 (MIC) of 0.5 µg/mL.
On to `C[C@@](CCn1ccc(-c2ccc(-n3ccnc3)cc2)cc1=O)(C(=O)NO)S(C)(=O)=O` [Example 388, (2R)-N-hydroxy-4-{4-[4-(1H-imidazol-1-yl)phenyl]-2-oxopyridin-1(2H)-yl}-2-methyl-2-(methylsulfonyl)butanamide], for which the EC-1 (MIC) in assay [1] was 16 µg/mL. This molecule came in with a PA-7 (MIC) in assay [2] of 16 µg/mL.
